Consider one compound from paper PMC13351859 (Biophysical Journal, 2026).

In the assay the target is T1, LASV FD (Lassa virus fusion domain, G260-N295) (Lassa virus Josiah, UniProt P08669).
T1 construct: gene GPC
Briefly: biochemical. It counts as binding.

One may read the Kd as a measure of binding affinity in units of concentration.

T1 sequence (P08669 260-295 limits assumed): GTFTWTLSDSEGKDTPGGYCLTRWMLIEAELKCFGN

On to `CCCCCCCC/C=C\CCCCCCCC(=O)O[C@H](COC(=O)CCCCCCCCCCCCCCC)COP(=O)([O-])OCC[N+](C)(C)C` [POPC, 1-palmitoyl-2-oleoyl-glycero-3-phosphocholine], for which the Kd is 657 ± 17 µM.
